Laboratory results taken from patent US8524705B2, “2-oxo-2-(2-phenyl-5,6,7,8-tetrahydro-indolizin-3-yl)-acetamide derivatives and related compounds as antifungal agents” (F2G Limited British Body Corporate, priority 2007, dated 2013).

Experiments:
Type in all cases: cell-based
Conditions in all cases: banded into grades
Aspergillus terreus AT49 = test: Measurement of Minimum Inhibitory Concentrations (MICs), A. terreus 49
Procedure: (§1) Between 1 and 5 mgs of compound were accurately weighed out into a sterile Eppendorf tube. The compound was dissolved in DMSO to give a solution containing 5 mg/mL. Tubes were stored at −20° C. until required. On the day of testing thawed solutions were vortex mixed to ensure homogeneity. 30 μL of solution was removed and added to 570 μL of sterile water in a separate sterile Eppendorf. The thoroughly mixed solution was used to prepare a series of doubling dilutions in water, in a deep well plate. […] replicate plates were prepared using a Minitrak by aspirating […] from each well into eleven clear polystyrene 96 well plates. Spores of Aspergillus spp. (Aspergillus fumigatus [two strains], Aspergillus terreus [two strains], Aspergillus niger and Aspergillus flavus) were harvested from cultures grown on Sabarauds agar for 5 days, and resuspended in PBS/Tween 80 to approx 1×10^7 cfu/mL. Each organism suspension was diluted in YAG medium (1% glucose, 1% ammonium chloride and 0.5% yeast extract) to 0.5-2×10^4 cfu/mL. 80 μL of an organism suspension was added to each well of the plate containing drug dilutions. This produced MIC plates with a drug range 50-0.05 mg/L and organism inocula of 1−2×10^4 cfu/mL for Aspergillus spp. All plates were incubated for 24 hrs at 35° C. Growth was assessed by monitoring the optical density at 485 nm for each well. The MIC of a compound is the lowest drug concentration that inhibits growth of an organism by >70% compared with a drug free control. MICs are recorded as mg/L. In cases where the MIC of an organism is >=0.05 mg/L the MIC is repeated using a concentration range of 0.5-0.0005 mg/L. Other growth media can be used for susceptibility testing, and the activity of the described compounds was also assessed in RPMI medium containing 2% glucose, and 0.135M MOPS buffer. MIC tests in YAG medium have more clear-cut endpoints and have slightly lower MICs than those performed in RPMI medium. The following organisms were tested: Aspergillus flavus, Aspergillus fumigatus AF293 and AF210, Aspergillus niger and Aspergillus terreus AT4 and AT49.

Aspergillus terreus AT4 = test: Measurement of Minimum Inhibitory Concentrations (MICs), A. terreus
Procedure: as §1

[1] = test system: Aspergillus fumigatus AF210; test: Measurement of Minimum Inhibitory Concentrations (MICs), A. fumigatus 210
Procedure: as §1

[2] = test system: Aspergillus fumigatus AF293; test: Measurement of Minimum Inhibitory Concentrations (MICs), A. fumigatus
Procedure: as §1

Aspergillus niger = test: Measurement of Minimum Inhibitory Concentrations (MICs), A. niger
Procedure: as §1

Aspergillus flavus = test: Measurement of Minimum Inhibitory Concentrations (MICs), A. flavus
Procedure: as §1

[3] = RPMI medium containing 2% glucose, 0.135M MOPS buffer
[4] = YAG medium, 24 hrs at 35° C., >70% growth inhibition

Row | SMILES | MIC (Aspergillus terreus AT49; [3]) | MIC (Aspergillus terreus AT49; [4]) | MIC (Aspergillus terreus AT4; [3]) | MIC (Aspergillus terreus AT4; [4]) | MIC [1, 3] | MIC [1, 4] | MIC [2, 3] | MIC [2, 4] | MIC (Aspergillus niger; [3]) | MIC (Aspergillus niger; [4]) | MIC (Aspergillus flavus; [3]) | MIC (Aspergillus flavus; [4])
1 | Cc1cc(C)nc(N2CCN(c3ccc(NC(=O)C(=O)c4c(-c5ccccc5)cc5n4CCCC5)c(C)c3)CC2)c1 [Example 20, N-{4-[4-(4,6-Dimethyl-pyridin-2-yl)-piperazin-1-yl]-2-methyl-phenyl}-2-oxo-2-(2-phenyl-5,6,7,8-tetrahydro-indolizin-3-yl)-acetamide] | < 1 µg/mL | < 1 µg/mL | < 1 µg/mL | < 1 µg/mL | < 1 µg/mL | < 1 µg/mL | < 1 µg/mL | < 1 µg/mL | < 1 µg/mL | < 1 µg/mL | < 1 µg/mL | < 1 µg/mL
2 | Cc1cc(C)nc(N2CCN(c3ccc(NC(=O)C(=O)c4c(-c5ccccc5)cc5n4CCCC5)cc3COCCCN3CCN(C)CC3)CC2)c1 [Example 25, N-{4-[4-(4,6-Dimethyl-pyridin-2-yl)-piperazin-1-yl]-3-[3-(4-methyl-piperazin-1-yl)-propoxymethyl]-phenyl}-2-oxo-2-(2-phenyl-5,6,7,8-tetrahydro-indolizin-3-yl)-acetamide] | > 10 µg/mL | > 10 µg/mL | > 10 µg/mL | > 10 µg/mL | > 10 µg/mL | > 10 µg/mL | > 10 µg/mL | > 10 µg/mL | > 10 µg/mL | > 10 µg/mL | > 10 µg/mL | > 10 µg/mL
3 | Cc1cc(C)nc(N(C)CCN(C)c2ccc(NC(=O)C(=O)c3c(-c4ccccc4)cc4n3CCCC4)cc2)c1 [Example 7, N-[4-({2-[(4,6-Dimethyl-pyridin-2-yl)-methyl-amino]-ethyl}-methyl-amino)-phenyl]-2-oxo-2-(2-phenyl-5,6,7,8-tetrahydro-indolizin-3-yl)-acetamide] | < 1 µg/mL | < 1 µg/mL | < 1 µg/mL | < 1 µg/mL | < 1 µg/mL | < 1 µg/mL | < 1 µg/mL | < 1 µg/mL | < 1 µg/mL | < 1 µg/mL | < 1 µg/mL | < 1 µg/mL
4 | Cc1cc(C)nc(N2CCC(O)(c3ccc(NC(=O)C(=O)c4c(-c5ccccc5)cc5n4CCCC5)cc3)CC2)c1 [Example 21, N-[4-(4-Hydroxy-4′,6′-dimethyl-3,4,5,6-tetrahydro-2H-[1,2′]bipyridinyl-4-yl)-phenyl]-2-oxo-2-(2-phenyl-5,6,7,8-tetrahydro-indolizin-3-yl)-acetamide] | < 1 µg/mL | < 1 µg/mL | < 1 µg/mL | < 1 µg/mL | < 1 µg/mL | < 1 µg/mL | < 1 µg/mL | < 1 µg/mL | < 1 µg/mL | < 1 µg/mL | < 1 µg/mL | < 1 µg/mL
5 | Cc1cc(C)nc(N2CCCN(c3ccc(NC(=O)C(=O)c4c(-c5ccccc5)cc5n4CCCC5)cc3)CC2)c1 [Example 5, N-{4-[4-(4,6-dimethyl-pyridin-2-yl)-[1,4]diazepan-1-yl]-phenyl}-2-oxo-2-(2-phenyl-5,6,7,8-tetrahydro-indolizin-3-yl)-acetamide] | < 1 µg/mL | < 1 µg/mL | < 1 µg/mL | < 1 µg/mL | < 1 µg/mL | < 1 µg/mL | < 1 µg/mL | < 1 µg/mL | < 1 µg/mL | < 1 µg/mL | < 1 µg/mL | < 1 µg/mL
6 | Cc1cc(C)nc(N2CCN(c3ccc(NC(=O)C(=O)c4c(C5CCOCC5)cc5n4CCCC5)cc3)CC2)c1 [Example 10, N-{4-[4-(4,6-Dimethyl-pyridin-2-yl)-piperazin-1-yl]-phenyl}-2-oxo-2-[2-(tetrahydro-pyran-4-yl)-5,6,7,8-tetrahydro-indolizin-3-yl]-acetamide] | < 1 µg/mL | < 1 µg/mL | < 1 µg/mL | < 1 µg/mL | < 1 µg/mL | < 1 µg/mL | < 1 µg/mL | < 1 µg/mL | < 1 µg/mL | < 1 µg/mL | < 1 µg/mL | < 1 µg/mL
7 | Cc1cc(C)nc(OCCOc2ccc(NC(=O)C(=O)c3c(-c4ccccc4)cc4n3CCCC4)cc2)c1 [Example 9, N-{4-[2-(4,6-Dimethyl-pyridin-2-yloxy)-ethoxy]-phenyl}-2-oxo-2-(2-phenyl-5,6,7,8-tetrahydro-indolizin-3-yl)-acetamide] | < 1 µg/mL | < 1 µg/mL | < 1 µg/mL | < 1 µg/mL | < 1 µg/mL | < 1 µg/mL | < 1 µg/mL | < 1 µg/mL | < 1 µg/mL | < 1 µg/mL | < 1 µg/mL | < 1 µg/mL
